Test results as given in US11697648B2, “Fused pyrimidine pyridinone compounds as JAK inhibitors” (THERAVANCE BIOPHARMA R&D IP, LLC, priority 2019, dated 2023).

Each compound was assayed on IL-2 stimulated STAT5 phosphorylation in Tall-1 human T cell line (JAK3) (assay: Cellular JAK3 potency assay: inhibition of IL-2 stimulated pSTAT5 in Tall-1 T cells). Settings: IL-2 stimulated pSTAT5, Tall-1 T cells.
Assay type: cell-based
Summary of the method: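 Tall-1 cells, 45,000 per well, preincubated 1 hour with compound at 37 °C, then stimulated 30 minutes with IL-2 at 300 ng/ml final. pSTAT5 (Tyr694/699) in lysates quantified by AlphaLISA SureFire Ultra. pIC50 derived from inhibition curves, given as mean with SD.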

SMILES | Tall-1 (pIC50)
C=CC(=O)N1CC(CCn2c(=O)ccc3cnc(Nc4ccc(N(C)C)cc4)nc32)C1 [Example 91] | B (B represents a pC50 value between 6.7 (included) and 7.5 (IC50 between 200 nM and 32 nM))
C=CC(=O)N1CC(CCn2c(=O)ccc3cnc(Nc4ccc(N5CCN(S(C)(=O)=O)CC5)cc4)nc32)C1 [Example 94] | A (A represents a pIC50 value≥7.5 (IC50≤32 nM))
C=CC(=O)N1CC(CCn2c(=O)ccc3cnc(Nc4ccc(N5CCN(C(=S)N(C)C)CC5)cc4)nc32)C1 [Example 95] | A (A represents a pIC50 value≥7.5 (IC50≤32 nM))
C=CC(=O)N1CC(CCn2c(=O)ccc3cnc(Nc4ccc(N5CCN(S(=O)(=O)NC)CC5)cc4)nc32)C1 [Example 96] | B (B represents a pC50 value between 6.7 (included) and 7.5 (IC50 between 200 nM and 32 nM))
C=CC(=O)N1CC(CCn2c(=O)ccc3cnc(Nc4ccc(N5CCN(C(=O)SC(C)(C)C)CC5)cc4)nc32)C1 [Example 98] | B (B represents a pC50 value between 6.7 (included) and 7.5 (IC50 between 200 nM and 32 nM))
C=CC(=O)N1CC(CCn2c(=O)ccc3cnc(Nc4ccc(N5CCN(C(=O)OCCOC)CC5)cc4)nc32)C1 [Example 99] | B (B represents a pC50 value between 6.7 (included) and 7.5 (IC50 between 200 nM and 32 nM))
C=CC(=O)N1CC(CCn2c(=O)ccc3cnc(Nc4ccc(N5CCN(C(=O)OC(C)C)CC5)cc4)nc32)C1 [Example 100] | A (A represents a pIC50 value≥7.5 (IC50≤32 nM))

The compounds below were run against JAK2 (Homo sapiens (Human), UniProt O60674) (assay: Biochemical JAK2 kinase assay (LanthaScreen)). Settings: not given.
Summary of the method: (§1)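 GST-JAK + GFP-STAT1 peptide, HEPES pH 7.5/MgCl2/EGTA/Brij-35 buffer; cpd preincubation 1 h RT; ATP start, 1 h RT; stop with 10 mM EDTA + 2 nM Tb-anti-pSTAT1; TR-FRET 520/495. 4-parameter IC50 → pKi (Cheng-Prusoff).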

Sequence of JAK2 (O60674 whole entry): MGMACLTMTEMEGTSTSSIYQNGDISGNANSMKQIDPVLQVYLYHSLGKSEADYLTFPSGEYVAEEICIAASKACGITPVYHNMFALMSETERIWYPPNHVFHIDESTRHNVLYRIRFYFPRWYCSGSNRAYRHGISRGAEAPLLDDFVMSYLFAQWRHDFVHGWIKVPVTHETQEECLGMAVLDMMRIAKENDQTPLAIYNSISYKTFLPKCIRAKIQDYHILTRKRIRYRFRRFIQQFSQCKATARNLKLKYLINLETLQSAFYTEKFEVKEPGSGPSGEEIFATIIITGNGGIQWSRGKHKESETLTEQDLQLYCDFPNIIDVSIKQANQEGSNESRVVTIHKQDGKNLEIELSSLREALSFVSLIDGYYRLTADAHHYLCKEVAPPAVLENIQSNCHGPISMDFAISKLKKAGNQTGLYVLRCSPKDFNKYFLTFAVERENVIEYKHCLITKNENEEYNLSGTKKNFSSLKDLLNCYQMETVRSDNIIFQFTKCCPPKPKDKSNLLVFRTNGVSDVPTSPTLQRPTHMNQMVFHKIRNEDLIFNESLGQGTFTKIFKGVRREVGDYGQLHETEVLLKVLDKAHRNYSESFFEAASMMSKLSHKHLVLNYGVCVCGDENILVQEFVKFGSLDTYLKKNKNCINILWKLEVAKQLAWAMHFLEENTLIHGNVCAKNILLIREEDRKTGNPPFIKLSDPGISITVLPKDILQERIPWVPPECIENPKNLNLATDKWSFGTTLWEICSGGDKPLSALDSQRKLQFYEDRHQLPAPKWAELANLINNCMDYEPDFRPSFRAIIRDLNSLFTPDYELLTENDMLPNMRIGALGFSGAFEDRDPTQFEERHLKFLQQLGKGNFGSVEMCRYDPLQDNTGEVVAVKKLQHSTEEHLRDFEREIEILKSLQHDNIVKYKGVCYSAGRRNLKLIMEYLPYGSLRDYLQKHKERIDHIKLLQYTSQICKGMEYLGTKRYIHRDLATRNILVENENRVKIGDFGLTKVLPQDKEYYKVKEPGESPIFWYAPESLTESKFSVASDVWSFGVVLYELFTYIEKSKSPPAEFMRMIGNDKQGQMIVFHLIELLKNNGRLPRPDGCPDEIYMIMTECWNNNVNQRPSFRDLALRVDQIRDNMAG

SMILES | JAK 2 (pKi)
C=CC(=O)N1CC(CCn2c(=O)ccc3cnc(Nc4ccc(N(C)C)cc4)nc32)C1 [Example 91] | E (E represents a pKi value of 7 or below (Ki of 100 nM or above))
C=CC(=O)N1CC(CCn2c(=O)ccc3cnc(Nc4ccc(N5CCN(S(C)(=O)=O)CC5)cc4)nc32)C1 [Example 94] | E (E represents a pKi value of 7 or below (Ki of 100 nM or above))
C=CC(=O)N1CC(CCn2c(=O)ccc3cnc(Nc4ccc(N5CCN(C(=S)N(C)C)CC5)cc4)nc32)C1 [Example 95] | E (E represents a pKi value of 7 or below (Ki of 100 nM or above))
C=CC(=O)N1CC(CCn2c(=O)ccc3cnc(Nc4ccc(N5CCN(S(=O)(=O)NC)CC5)cc4)nc32)C1 [Example 96] | E (E represents a pKi value of 7 or below (Ki of 100 nM or above))
C=CC(=O)N1CC(CCn2c(=O)ccc3cnc(Nc4ccc(N5CCN(C(=O)SC(C)(C)C)CC5)cc4)nc32)C1 [Example 98] | E (E represents a pKi value of 7 or below (Ki of 100 nM or above))
C=CC(=O)N1CC(CCn2c(=O)ccc3cnc(Nc4ccc(N5CCN(C(=O)OCCOC)CC5)cc4)nc32)C1 [Example 99] | E (E represents a pKi value of 7 or below (Ki of 100 nM or above))
C=CC(=O)N1CC(CCn2c(=O)ccc3cnc(Nc4ccc(N5CCN(C(=O)OC(C)C)CC5)cc4)nc32)C1 [Example 100] | E (E represents a pKi value of 7 or below (Ki of 100 nM or above))

The compounds below were run against JAK1 (Homo sapiens (Human), UniProt P23458) (assay: Biochemical JAK1 kinase assay (LanthaScreen)). Settings: not given.
Summary of the method: as §1

Sequence of JAK1 (P23458 whole entry): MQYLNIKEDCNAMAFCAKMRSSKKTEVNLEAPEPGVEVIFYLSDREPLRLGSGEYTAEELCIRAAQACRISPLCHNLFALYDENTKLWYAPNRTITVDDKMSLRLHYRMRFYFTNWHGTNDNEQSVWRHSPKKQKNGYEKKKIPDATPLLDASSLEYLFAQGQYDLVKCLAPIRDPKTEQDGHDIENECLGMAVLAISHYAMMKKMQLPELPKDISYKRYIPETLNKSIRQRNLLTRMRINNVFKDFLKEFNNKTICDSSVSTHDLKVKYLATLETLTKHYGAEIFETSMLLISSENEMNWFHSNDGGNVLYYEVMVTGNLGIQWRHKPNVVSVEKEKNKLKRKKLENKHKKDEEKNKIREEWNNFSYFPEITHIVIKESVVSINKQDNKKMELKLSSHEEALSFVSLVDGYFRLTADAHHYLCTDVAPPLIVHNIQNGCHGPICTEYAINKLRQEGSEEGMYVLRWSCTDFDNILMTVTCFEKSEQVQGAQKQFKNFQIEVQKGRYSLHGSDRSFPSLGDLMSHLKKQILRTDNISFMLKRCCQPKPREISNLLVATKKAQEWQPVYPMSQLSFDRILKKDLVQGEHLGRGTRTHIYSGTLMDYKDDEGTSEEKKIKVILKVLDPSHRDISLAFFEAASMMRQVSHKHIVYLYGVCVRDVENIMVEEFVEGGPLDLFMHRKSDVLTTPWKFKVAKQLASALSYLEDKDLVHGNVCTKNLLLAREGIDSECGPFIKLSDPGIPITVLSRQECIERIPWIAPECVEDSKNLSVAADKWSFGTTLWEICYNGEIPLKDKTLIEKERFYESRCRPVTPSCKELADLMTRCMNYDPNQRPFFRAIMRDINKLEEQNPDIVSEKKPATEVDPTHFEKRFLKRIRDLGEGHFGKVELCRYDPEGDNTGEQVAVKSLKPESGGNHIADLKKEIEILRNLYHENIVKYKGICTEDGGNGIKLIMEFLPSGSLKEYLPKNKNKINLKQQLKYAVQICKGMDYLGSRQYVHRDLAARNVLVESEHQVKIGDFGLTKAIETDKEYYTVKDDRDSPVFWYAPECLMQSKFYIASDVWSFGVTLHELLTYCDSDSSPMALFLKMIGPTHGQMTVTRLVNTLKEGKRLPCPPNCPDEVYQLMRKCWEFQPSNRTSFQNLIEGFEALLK

SMILES | JAK 1 (pKi)
C=CC(=O)N1CC(CCn2c(=O)ccc3cnc(Nc4ccc(N(C)C)cc4)nc32)C1 [Example 91] | E (E represents a pKi value of 7 or below (Ki of 100 nM or above))
C=CC(=O)N1CC(CCn2c(=O)ccc3cnc(Nc4ccc(N5CCN(S(C)(=O)=O)CC5)cc4)nc32)C1 [Example 94] | E (E represents a pKi value of 7 or below (Ki of 100 nM or above))
C=CC(=O)N1CC(CCn2c(=O)ccc3cnc(Nc4ccc(N5CCN(C(=S)N(C)C)CC5)cc4)nc32)C1 [Example 95] | E (E represents a pKi value of 7 or below (Ki of 100 nM or above))
C=CC(=O)N1CC(CCn2c(=O)ccc3cnc(Nc4ccc(N5CCN(S(=O)(=O)NC)CC5)cc4)nc32)C1 [Example 96] | E (E represents a pKi value of 7 or below (Ki of 100 nM or above))
C=CC(=O)N1CC(CCn2c(=O)ccc3cnc(Nc4ccc(N5CCN(C(=O)SC(C)(C)C)CC5)cc4)nc32)C1 [Example 98] | E (E represents a pKi value of 7 or below (Ki of 100 nM or above))
C=CC(=O)N1CC(CCn2c(=O)ccc3cnc(Nc4ccc(N5CCN(C(=O)OCCOC)CC5)cc4)nc32)C1 [Example 99] | E (E represents a pKi value of 7 or below (Ki of 100 nM or above))
C=CC(=O)N1CC(CCn2c(=O)ccc3cnc(Nc4ccc(N5CCN(C(=O)OC(C)C)CC5)cc4)nc32)C1 [Example 100] | E (E represents a pKi value of 7 or below (Ki of 100 nM or above))

Each compound was assayed against JAK3 (Homo sapiens (Human), UniProt P52333) (assay: Biochemical JAK3 kinase assay (LanthaScreen)). Settings: not given.
Summary of the method: as §1

Sequence of JAK3 (P52333 whole entry): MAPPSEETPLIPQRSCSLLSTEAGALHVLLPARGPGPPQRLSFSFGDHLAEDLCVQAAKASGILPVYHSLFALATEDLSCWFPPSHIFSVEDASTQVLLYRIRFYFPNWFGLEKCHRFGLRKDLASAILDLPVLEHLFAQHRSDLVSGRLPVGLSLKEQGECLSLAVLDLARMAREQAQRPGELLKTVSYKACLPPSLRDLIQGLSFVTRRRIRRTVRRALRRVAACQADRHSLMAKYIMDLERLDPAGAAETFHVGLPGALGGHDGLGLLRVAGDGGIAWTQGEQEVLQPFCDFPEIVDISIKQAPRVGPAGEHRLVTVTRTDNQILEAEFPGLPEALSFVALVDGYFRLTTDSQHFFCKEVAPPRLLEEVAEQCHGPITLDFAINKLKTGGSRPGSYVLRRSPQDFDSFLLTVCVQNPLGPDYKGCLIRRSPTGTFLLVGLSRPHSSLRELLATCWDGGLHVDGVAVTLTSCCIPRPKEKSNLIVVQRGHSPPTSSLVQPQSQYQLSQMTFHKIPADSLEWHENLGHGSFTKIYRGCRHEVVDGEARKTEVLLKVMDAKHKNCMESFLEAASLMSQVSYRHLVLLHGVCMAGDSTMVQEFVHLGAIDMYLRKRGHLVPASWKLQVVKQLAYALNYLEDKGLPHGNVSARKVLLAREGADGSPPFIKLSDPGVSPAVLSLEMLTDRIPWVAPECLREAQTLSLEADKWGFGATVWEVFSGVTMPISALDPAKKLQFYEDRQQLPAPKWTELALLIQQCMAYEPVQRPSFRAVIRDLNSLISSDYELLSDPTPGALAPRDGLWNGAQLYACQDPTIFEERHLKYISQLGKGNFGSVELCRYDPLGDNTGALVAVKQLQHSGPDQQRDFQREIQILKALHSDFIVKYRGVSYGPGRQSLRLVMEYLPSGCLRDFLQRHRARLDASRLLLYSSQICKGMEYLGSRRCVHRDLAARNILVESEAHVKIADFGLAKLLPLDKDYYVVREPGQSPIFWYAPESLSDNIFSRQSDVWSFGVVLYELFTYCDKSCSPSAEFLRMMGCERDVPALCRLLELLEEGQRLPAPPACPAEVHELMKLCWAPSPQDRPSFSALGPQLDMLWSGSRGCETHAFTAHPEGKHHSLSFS

SMILES | JAK 3 (pKi)
C=CC(=O)N1CC(CCn2c(=O)ccc3cnc(Nc4ccc(N(C)C)cc4)nc32)C1 [Example 91] | A (A represents a pKi value≥10 (Ki≤0.1 nM))
C=CC(=O)N1CC(CCn2c(=O)ccc3cnc(Nc4ccc(N5CCN(S(C)(=O)=O)CC5)cc4)nc32)C1 [Example 94] | A (A represents a pKi value≥10 (Ki≤0.1 nM))
C=CC(=O)N1CC(CCn2c(=O)ccc3cnc(Nc4ccc(N5CCN(C(=S)N(C)C)CC5)cc4)nc32)C1 [Example 95] | A (A represents a pKi value≥10 (Ki≤0.1 nM))
C=CC(=O)N1CC(CCn2c(=O)ccc3cnc(Nc4ccc(N5CCN(S(=O)(=O)NC)CC5)cc4)nc32)C1 [Example 96] | A (A represents a pKi value≥10 (Ki≤0.1 nM))
C=CC(=O)N1CC(CCn2c(=O)ccc3cnc(Nc4ccc(N5CCN(C(=O)SC(C)(C)C)CC5)cc4)nc32)C1 [Example 98] | A (A represents a pKi value≥10 (Ki≤0.1 nM))
C=CC(=O)N1CC(CCn2c(=O)ccc3cnc(Nc4ccc(N5CCN(C(=O)OCCOC)CC5)cc4)nc32)C1 [Example 99] | A (A represents a pKi value≥10 (Ki≤0.1 nM))
C=CC(=O)N1CC(CCn2c(=O)ccc3cnc(Nc4ccc(N5CCN(C(=O)OC(C)C)CC5)cc4)nc32)C1 [Example 100] | A (A represents a pKi value≥10 (Ki≤0.1 nM))

Same assay, conditions: selectivity JAK3 over JAK1, difference of pKi

SMILES | JAK3 (pKi)-JAK1 (pKi)
C=CC(=O)N1CC(CCn2c(=O)ccc3cnc(Nc4ccc(N(C)C)cc4)nc32)C1 [Example 91] | A (A represents a value of 3 or above)
C=CC(=O)N1CC(CCn2c(=O)ccc3cnc(Nc4ccc(N5CCN(S(C)(=O)=O)CC5)cc4)nc32)C1 [Example 94] | A (A represents a value of 3 or above)
C=CC(=O)N1CC(CCn2c(=O)ccc3cnc(Nc4ccc(N5CCN(C(=S)N(C)C)CC5)cc4)nc32)C1 [Example 95] | A (A represents a value of 3 or above)
C=CC(=O)N1CC(CCn2c(=O)ccc3cnc(Nc4ccc(N5CCN(S(=O)(=O)NC)CC5)cc4)nc32)C1 [Example 96] | A (A represents a value of 3 or above)
C=CC(=O)N1CC(CCn2c(=O)ccc3cnc(Nc4ccc(N5CCN(C(=O)SC(C)(C)C)CC5)cc4)nc32)C1 [Example 98] | A (A represents a value of 3 or above)
C=CC(=O)N1CC(CCn2c(=O)ccc3cnc(Nc4ccc(N5CCN(C(=O)OCCOC)CC5)cc4)nc32)C1 [Example 99] | A (A represents a value of 3 or above)
C=CC(=O)N1CC(CCn2c(=O)ccc3cnc(Nc4ccc(N5CCN(C(=O)OC(C)C)CC5)cc4)nc32)C1 [Example 100] | A (A represents a value of 3 or above)

What follows are compounds tested against Tyk2 (Homo sapiens (Human), UniProt P29597) (assay: Biochemical Tyk2 kinase assay (LanthaScreen)). Settings: not given.
Summary of the method: as §1

Sequence of Tyk2 (P29597 whole entry): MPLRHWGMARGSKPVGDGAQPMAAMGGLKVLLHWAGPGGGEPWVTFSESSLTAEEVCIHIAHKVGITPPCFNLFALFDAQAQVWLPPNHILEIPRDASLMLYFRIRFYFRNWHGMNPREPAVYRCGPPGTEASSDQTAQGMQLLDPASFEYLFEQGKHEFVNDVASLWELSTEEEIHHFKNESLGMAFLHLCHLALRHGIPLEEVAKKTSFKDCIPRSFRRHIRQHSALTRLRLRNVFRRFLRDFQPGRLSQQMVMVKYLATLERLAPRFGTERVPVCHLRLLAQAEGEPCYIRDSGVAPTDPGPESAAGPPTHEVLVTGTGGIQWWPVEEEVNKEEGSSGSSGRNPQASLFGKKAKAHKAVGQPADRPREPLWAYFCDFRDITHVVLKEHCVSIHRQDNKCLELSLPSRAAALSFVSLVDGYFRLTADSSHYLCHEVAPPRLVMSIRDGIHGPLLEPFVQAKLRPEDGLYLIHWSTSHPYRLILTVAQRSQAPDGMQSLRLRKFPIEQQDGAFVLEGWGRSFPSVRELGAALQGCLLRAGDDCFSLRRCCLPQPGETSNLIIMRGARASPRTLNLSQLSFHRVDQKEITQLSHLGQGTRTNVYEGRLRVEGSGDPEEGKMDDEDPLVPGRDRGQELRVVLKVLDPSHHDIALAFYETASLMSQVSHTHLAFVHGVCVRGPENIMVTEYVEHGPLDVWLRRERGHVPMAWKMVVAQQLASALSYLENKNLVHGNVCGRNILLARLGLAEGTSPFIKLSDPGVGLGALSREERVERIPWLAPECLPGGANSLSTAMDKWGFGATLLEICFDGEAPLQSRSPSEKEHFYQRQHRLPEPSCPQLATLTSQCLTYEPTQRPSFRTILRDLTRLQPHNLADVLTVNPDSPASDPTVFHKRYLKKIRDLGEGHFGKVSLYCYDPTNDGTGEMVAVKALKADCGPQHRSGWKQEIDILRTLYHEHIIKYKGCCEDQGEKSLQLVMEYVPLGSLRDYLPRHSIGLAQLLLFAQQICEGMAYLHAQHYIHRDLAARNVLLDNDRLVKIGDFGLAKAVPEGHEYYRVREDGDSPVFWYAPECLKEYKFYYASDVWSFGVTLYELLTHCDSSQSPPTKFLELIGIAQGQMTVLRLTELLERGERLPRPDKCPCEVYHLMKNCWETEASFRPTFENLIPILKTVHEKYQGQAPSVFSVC

SMILES | Tyk 2 (pKi)
C=CC(=O)N1CC(CCn2c(=O)ccc3cnc(Nc4ccc(N(C)C)cc4)nc32)C1 [Example 91] | E (E represents a pKi value of 7 or below (Ki of 100 nM or above))
C=CC(=O)N1CC(CCn2c(=O)ccc3cnc(Nc4ccc(N5CCN(S(C)(=O)=O)CC5)cc4)nc32)C1 [Example 94] | E (E represents a pKi value of 7 or below (Ki of 100 nM or above))
C=CC(=O)N1CC(CCn2c(=O)ccc3cnc(Nc4ccc(N5CCN(C(=S)N(C)C)CC5)cc4)nc32)C1 [Example 95] | E (E represents a pKi value of 7 or below (Ki of 100 nM or above))
C=CC(=O)N1CC(CCn2c(=O)ccc3cnc(Nc4ccc(N5CCN(S(=O)(=O)NC)CC5)cc4)nc32)C1 [Example 96] | E (E represents a pKi value of 7 or below (Ki of 100 nM or above))
C=CC(=O)N1CC(CCn2c(=O)ccc3cnc(Nc4ccc(N5CCN(C(=O)SC(C)(C)C)CC5)cc4)nc32)C1 [Example 98] | E (E represents a pKi value of 7 or below (Ki of 100 nM or above))
C=CC(=O)N1CC(CCn2c(=O)ccc3cnc(Nc4ccc(N5CCN(C(=O)OCCOC)CC5)cc4)nc32)C1 [Example 99] | E (E represents a pKi value of 7 or below (Ki of 100 nM or above))
C=CC(=O)N1CC(CCn2c(=O)ccc3cnc(Nc4ccc(N5CCN(C(=O)OC(C)C)CC5)cc4)nc32)C1 [Example 100] | E (E represents a pKi value of 7 or below (Ki of 100 nM or above))

Each compound was assayed on Caco-2 cell monolayers (assay: Caco-2 permeation assay). Settings: 5 μM, A-B direction, with Verapamil (25 μM).
Assay type: in vitro ADME
Summary of the method: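 Compounds tested at 5 μM in duplicate across Caco-2 monolayers, apical-to-basolateral, with 25 μM verapamil to block P-gp, at 37° C., 5% CO2. Apical and basal samples taken at 0 and 120 min, analysed by LC-MS/MS; Papp (cm/sec) calculated as dQ/(dt×Area×concentration).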

SMILES | Caco Kp
C=CC(=O)N1CC(CCn2c(=O)ccc3cnc(Nc4ccc(N(C)C)cc4)nc32)C1 [Example 91] | D (D represents a value over 30×10^−6 cm/sec)
C=CC(=O)N1CC(CCn2c(=O)ccc3cnc(Nc4ccc(N5CCN(S(C)(=O)=O)CC5)cc4)nc32)C1 [Example 94] | A (A represents a value below 5×10^−6 cm/sec)
C=CC(=O)N1CC(CCn2c(=O)ccc3cnc(Nc4ccc(N5CCN(C(=S)N(C)C)CC5)cc4)nc32)C1 [Example 95] | A (A represents a value below 5×10^−6 cm/sec)
C=CC(=O)N1CC(CCn2c(=O)ccc3cnc(Nc4ccc(N5CCN(S(=O)(=O)NC)CC5)cc4)nc32)C1 [Example 96] | A (A represents a value below 5×10^−6 cm/sec)
C=CC(=O)N1CC(CCn2c(=O)ccc3cnc(Nc4ccc(N5CCN(C(=O)SC(C)(C)C)CC5)cc4)nc32)C1 [Example 98] | A (A represents a value below 5×10^−6 cm/sec)
C=CC(=O)N1CC(CCn2c(=O)ccc3cnc(Nc4ccc(N5CCN(C(=O)OCCOC)CC5)cc4)nc32)C1 [Example 99] | A (A represents a value below 5×10^−6 cm/sec)
C=CC(=O)N1CC(CCn2c(=O)ccc3cnc(Nc4ccc(N5CCN(C(=O)OC(C)C)CC5)cc4)nc32)C1 [Example 100] | A (A represents a value below 5×10^−6 cm/sec)
